# Assay results as given in BindingDB's records for doi:10.1016/j.bmcl.2010.01.039 (Institute of Science and Technology, 2010).
# Target: T1, Receptor-type tyrosine-protein kinase FLT3 (Homo sapiens, UniProt P36888)
# T1 sequence (P36888 whole entry): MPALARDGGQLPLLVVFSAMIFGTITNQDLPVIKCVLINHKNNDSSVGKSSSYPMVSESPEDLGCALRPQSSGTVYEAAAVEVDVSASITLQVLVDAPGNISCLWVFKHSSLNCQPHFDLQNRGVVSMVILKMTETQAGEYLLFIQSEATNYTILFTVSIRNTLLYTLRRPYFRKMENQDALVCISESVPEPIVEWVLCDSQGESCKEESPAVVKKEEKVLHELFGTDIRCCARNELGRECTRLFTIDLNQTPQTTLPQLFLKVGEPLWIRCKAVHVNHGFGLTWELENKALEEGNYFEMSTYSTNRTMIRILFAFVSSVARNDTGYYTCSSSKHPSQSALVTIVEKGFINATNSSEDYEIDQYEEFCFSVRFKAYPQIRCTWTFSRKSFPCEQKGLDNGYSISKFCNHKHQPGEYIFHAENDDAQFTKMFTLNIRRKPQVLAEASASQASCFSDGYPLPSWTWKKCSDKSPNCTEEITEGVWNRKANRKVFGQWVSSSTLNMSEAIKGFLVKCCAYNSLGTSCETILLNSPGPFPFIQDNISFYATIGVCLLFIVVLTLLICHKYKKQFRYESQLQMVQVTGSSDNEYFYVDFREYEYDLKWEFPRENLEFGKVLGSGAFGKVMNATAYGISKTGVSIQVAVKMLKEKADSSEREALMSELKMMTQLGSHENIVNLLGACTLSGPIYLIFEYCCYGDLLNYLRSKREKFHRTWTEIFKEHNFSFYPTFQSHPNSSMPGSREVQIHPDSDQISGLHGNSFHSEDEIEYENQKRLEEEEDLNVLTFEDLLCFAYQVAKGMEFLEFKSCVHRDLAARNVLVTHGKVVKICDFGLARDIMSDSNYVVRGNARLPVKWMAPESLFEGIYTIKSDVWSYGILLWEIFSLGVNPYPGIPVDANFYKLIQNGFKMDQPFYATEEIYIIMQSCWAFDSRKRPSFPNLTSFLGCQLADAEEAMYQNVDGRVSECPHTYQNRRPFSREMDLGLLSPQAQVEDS
# Test: Inhibition of FLT3 by HTRF assay
row,SMILES,IC50 [µM]
1,"Cc1cc(Cl)cc2c1NC(=O)C2c1[nH]c2ccccc2c1N=O (centres undefined) [5'-Chloro-7'-methyl-1H,1'H-[2,3']biindolylidene-3,2'-dione 3-oxime]",> 10
2,"O=Nc1c(C2C(=O)Nc3ccc(OC(F)(F)F)cc32)[nH]c2ccccc12 (centres undefined) [5'-Trifluoromethoxy-1H,1'H-[2,3']biindolylidene-3,2'-dione 3-oxime]",> 10
3,"O=C1N=c2ccc([N+](=O)[O-])cc2=C1c1[nH]c2ccccc2c1O [(Z)-5'-Nitro-1H,1'H-[2,3']biindolylidene-3,2'-dione]",> 10
4,"O=Nc1c(C2C(=O)Nc3ccc([N+](=O)[O-])cc32)[nH]c2ccc(Br)cc12 (centres undefined) [(Z)-5-Bromo-5'-nitro-1H,1'H-[2,3']biindolylidene-3,2'-dione 3-oxime]",> 10
